Values quoted from earlier work, collected in patent publication US20130004545A1, “SLOW RELEASE PHARMACEUTICAL COMPOSITIONS OF ILOPERIDONE” (LUPIN LIMITED, priority 2009, published 2013).

Key:
[1] = for t1/2: metabolite of iloperidone
[2] = target: 5-HT2A receptors (Homo sapiens, UniProt P28223)
[3] = system: plasma proteins; conditions: administered orally

5-HT2A receptors, sequence (P28223 whole entry): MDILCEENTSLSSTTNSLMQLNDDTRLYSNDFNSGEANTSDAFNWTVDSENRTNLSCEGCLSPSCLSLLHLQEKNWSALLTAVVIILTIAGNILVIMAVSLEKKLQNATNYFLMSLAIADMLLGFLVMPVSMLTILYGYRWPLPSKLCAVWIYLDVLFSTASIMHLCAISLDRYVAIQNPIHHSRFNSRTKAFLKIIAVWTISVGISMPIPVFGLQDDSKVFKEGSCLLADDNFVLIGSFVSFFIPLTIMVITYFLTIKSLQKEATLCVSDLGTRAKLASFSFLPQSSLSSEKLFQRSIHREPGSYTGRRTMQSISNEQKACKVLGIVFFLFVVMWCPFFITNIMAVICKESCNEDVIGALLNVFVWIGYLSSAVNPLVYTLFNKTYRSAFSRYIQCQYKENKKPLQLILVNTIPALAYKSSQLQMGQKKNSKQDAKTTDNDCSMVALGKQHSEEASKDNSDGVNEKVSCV

| binding to plasma proteins [3] | tmax ([1]; metabolite, after oral administration of parent active ingredient) [h] | Structure (SMILES) | t1/2 [1] [h] | receptor affinity [2] | Plasma level relative to Iloperidone ([1]; metabolite plasma level, reported) |
| --- | --- | --- | --- | --- | --- |
| – | – | COc1cc(C(=O)O)ccc1OCCCN1CCC(c2noc3cc(F)ccc23)CC1 [Example P95, 4-[3-[4-(6-fluoro-1,2,-benzisoxazol-3-yl)-1-piperidinyl]propoxy]-3-methoxy-benzoic acid] | 25.6 | affinity for only 5-HT2A receptors | – |
| highly bound to plasma proteins | – | COc1cc(C(C)=O)ccc1OCCCN1CCC(c2noc3cc(F)ccc23)CC1 [Iloperidone] | – | – | – |
| – | 6 | COc1cc(C(C)O)ccc1OCCCN1CCC(c2noc3cc(F)ccc23)CC1 (stereo not drawn) [Example P88] | 25.6 | – | approximately 1.5 times that of Iloperidone |
